{"source": "patent US6849712B1", "about": "“Peptides with β1 integrin subunit dependent cell adhesion modulating activity” (Regents of the University of Minnesota, priority 1998, dated 2005)", "key": {"[1]": {"target": "T1, α1β2 (LFA-1) integrin (Homo sapiens, UniProt P05107+P20701)", "T1 construct": "the B-cell line M16B (which both express functional α4β1 and α1β2 integrin); endogenous in cells; host or cells: M16B B-cell line", "T1 sequence (P20701 26-1170)": "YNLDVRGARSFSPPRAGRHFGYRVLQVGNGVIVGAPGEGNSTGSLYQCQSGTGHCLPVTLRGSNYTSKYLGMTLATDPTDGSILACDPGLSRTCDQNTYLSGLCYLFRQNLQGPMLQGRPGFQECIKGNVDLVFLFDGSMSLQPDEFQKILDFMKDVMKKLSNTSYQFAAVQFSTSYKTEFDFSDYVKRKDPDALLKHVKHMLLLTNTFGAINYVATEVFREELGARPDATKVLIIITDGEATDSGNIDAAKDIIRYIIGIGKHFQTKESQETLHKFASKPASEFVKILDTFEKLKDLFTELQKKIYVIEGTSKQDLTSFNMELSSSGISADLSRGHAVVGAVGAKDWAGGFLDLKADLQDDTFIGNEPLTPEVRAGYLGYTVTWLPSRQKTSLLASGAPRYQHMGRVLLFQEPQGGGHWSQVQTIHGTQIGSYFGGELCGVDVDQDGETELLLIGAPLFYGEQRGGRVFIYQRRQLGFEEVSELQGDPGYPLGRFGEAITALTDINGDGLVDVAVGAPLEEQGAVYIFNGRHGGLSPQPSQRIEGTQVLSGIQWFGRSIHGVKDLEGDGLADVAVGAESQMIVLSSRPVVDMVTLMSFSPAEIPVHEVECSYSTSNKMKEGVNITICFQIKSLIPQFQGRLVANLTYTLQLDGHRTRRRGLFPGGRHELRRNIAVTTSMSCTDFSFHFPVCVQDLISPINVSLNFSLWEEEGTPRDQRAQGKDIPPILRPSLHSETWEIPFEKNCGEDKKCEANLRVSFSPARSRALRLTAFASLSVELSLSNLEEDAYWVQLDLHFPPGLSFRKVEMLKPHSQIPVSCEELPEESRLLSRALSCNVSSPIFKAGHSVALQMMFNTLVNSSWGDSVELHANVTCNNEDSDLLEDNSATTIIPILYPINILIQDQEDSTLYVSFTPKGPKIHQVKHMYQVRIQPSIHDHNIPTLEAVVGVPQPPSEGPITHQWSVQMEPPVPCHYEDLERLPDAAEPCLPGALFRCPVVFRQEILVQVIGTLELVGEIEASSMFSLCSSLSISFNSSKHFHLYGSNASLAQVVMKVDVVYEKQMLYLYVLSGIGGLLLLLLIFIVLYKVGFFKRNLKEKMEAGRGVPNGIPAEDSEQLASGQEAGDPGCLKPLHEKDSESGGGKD", "T1 sequence (P05107 23-769)": "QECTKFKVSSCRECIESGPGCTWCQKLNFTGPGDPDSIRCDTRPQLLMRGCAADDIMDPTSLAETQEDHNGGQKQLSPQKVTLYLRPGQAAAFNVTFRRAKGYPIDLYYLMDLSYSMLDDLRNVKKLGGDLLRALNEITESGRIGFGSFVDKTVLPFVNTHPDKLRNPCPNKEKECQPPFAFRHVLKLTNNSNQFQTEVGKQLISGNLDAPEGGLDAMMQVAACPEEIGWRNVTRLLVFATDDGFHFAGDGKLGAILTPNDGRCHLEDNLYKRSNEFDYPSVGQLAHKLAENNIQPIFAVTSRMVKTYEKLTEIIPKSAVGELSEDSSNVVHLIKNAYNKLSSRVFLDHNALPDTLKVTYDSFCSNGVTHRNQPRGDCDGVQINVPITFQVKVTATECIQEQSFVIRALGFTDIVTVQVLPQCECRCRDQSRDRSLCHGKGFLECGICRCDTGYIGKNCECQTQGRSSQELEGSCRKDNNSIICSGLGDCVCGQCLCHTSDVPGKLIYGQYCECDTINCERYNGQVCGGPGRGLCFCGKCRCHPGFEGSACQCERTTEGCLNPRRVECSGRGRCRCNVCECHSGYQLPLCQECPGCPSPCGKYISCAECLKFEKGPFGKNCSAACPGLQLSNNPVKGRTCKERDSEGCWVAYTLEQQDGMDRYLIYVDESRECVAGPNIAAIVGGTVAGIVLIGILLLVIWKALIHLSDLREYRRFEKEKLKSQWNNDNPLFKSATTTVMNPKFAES", "assay": "α1β2 (LFA-1) integrin dependent M16B adhesion to rICAM", "type": "cell-based", "method": "To determine whether inhibition of adhesion by soluble FN-C/H V is specific for b1 integrins, the ability of this peptide to inhibit β2 integrin-dependent adhesion was also evaluated."}, "[2]": {"tested_on": "α2β1 and α3β1 integrin", "assay": "Inhibition of α2β1, α3β1 integrin dependent human melanoma M14#5 cell adhesion to laminin and type IV collagen", "type": "cell-based", "settings": "0.5 mg/ml peptide (0.42 mM), 30 minutes", "method": "An experiment was conducted to examine the ability of FN-C/H V+Y (SEQ ID NO:1) to inhibit α2β1, α3β1 integrin dependent cell adhesion using an assay based on human melanoma cells (M14#5).\nLaminin, type IV collagen and BSA were coated overnight in a 96 well microtiter plate at 10 μg/ml and blocked with 0.3% BSA. M14#5 cells were preincubated with 0.5 mg/ml of peptide (equivalent to 0.42 mM FN-C/H V and scrambled FN-C/H V and 0.17 mM CSI) and allowed to adhere to substrates for 30 minutes."}, "[3]": {"tested_on": "VCAM", "settings": "reported; cited from earlier work"}, "[4]": {"target": "α4β1 integrin (Homo sapiens, UniProt P05556+P13612)", "sequence (P13612 34-1032)": "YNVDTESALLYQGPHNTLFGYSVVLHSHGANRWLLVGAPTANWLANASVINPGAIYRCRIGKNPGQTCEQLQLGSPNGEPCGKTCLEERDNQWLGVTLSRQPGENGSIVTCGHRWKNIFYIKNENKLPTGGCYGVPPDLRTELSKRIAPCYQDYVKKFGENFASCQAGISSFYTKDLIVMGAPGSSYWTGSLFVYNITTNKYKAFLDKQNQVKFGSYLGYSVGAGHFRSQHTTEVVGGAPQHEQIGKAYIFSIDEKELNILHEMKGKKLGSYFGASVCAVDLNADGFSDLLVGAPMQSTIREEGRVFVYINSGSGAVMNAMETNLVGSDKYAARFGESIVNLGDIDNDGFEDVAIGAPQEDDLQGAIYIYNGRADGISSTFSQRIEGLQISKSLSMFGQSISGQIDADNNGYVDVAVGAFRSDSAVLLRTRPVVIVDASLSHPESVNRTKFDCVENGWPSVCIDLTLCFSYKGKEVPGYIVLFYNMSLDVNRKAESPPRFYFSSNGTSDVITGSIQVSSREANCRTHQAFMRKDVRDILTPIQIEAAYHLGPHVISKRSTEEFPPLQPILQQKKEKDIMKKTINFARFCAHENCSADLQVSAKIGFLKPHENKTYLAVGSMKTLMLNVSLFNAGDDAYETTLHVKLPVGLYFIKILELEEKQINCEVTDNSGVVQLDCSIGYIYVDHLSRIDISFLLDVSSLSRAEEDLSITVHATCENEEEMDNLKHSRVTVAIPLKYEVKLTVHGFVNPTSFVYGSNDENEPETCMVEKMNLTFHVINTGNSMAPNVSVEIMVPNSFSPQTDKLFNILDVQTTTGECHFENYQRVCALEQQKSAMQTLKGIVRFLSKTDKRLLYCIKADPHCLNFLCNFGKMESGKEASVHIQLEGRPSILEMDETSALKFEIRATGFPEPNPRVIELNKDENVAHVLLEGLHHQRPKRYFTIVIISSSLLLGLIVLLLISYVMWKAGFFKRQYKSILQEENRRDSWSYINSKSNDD", "sequence (P05556 21-798)": "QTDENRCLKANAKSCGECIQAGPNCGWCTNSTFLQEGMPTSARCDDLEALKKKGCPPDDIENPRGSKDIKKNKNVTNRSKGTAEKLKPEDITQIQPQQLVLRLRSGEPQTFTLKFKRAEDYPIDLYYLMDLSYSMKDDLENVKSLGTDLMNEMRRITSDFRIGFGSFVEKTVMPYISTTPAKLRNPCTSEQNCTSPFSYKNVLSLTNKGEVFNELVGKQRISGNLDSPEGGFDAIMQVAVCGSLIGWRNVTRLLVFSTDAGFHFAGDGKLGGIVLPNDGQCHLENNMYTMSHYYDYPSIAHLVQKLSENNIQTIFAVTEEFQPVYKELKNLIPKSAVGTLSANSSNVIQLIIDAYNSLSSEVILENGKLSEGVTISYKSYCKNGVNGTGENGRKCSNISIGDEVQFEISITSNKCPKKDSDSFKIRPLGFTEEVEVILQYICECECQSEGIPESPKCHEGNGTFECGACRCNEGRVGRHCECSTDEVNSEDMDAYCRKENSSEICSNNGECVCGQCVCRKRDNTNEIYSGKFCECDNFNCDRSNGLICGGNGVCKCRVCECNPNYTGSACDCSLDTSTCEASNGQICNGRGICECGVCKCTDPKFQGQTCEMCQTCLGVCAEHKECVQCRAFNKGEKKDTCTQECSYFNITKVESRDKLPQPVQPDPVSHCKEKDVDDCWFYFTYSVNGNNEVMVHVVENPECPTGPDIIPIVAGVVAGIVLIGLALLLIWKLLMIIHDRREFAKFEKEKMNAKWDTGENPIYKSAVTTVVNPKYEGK", "assay": "α4β1 integrin-dependent Mn+2 stimulated M16B adhesion to rCS1", "type": "cell-based", "set-up": "endogenous in cells", "settings": "soluble peptide"}, "[5]": {"target": "T2, α5β1 integrin (Homo sapiens, UniProt P05556+P08648)", "T2 construct": "erythroleukemic cell line K562, which expresses α5β1 but not α4β1 integrin; endogenous in cells; host or cells: K562 cells", "T2 sequence (P08648 42-894 limits assumed)": "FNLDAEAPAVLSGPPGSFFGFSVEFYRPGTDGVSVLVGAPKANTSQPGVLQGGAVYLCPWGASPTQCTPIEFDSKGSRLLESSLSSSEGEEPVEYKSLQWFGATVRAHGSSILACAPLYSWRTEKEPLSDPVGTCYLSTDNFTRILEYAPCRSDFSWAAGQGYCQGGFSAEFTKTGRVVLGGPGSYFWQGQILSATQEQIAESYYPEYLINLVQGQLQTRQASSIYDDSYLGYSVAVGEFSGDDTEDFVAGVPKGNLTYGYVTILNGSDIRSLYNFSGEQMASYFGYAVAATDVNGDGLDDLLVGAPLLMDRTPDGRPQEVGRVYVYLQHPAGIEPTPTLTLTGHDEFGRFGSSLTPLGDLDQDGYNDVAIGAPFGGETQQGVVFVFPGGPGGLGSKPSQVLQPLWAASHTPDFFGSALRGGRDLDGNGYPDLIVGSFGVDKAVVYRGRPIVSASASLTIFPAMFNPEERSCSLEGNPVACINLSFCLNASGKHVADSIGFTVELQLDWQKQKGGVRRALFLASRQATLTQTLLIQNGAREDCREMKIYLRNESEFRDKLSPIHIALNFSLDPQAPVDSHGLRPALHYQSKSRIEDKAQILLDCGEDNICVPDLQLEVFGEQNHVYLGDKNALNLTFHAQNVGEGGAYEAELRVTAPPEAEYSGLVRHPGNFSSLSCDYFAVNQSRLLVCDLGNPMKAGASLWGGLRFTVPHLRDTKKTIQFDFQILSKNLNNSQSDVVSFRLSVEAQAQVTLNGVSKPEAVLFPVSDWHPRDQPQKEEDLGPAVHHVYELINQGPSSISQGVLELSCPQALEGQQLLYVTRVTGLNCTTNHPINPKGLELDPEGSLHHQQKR", "T2 sequence (P08648 895-1049 limits assumed)": "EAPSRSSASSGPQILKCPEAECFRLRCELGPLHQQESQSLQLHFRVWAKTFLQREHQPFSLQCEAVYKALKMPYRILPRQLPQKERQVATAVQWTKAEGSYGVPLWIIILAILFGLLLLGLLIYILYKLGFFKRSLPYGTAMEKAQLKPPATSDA", "T2 sequence (P05556 21-798)": "as the sequence (P05556 21-798) above", "assay": "Inhibition of α5β1 integrin dependent Mn+2 stimulated adhesion of K562 cells to fibronectin (FN)", "type": "cell-based", "method": "The cell adhesion assay was carried out as described above. […] Each data point represents the mean of triplicate determinations and the error bars represent the standard deviation of the mean. The solid black line represents adhesion to the negative control substrate, BSA."}, "[6]": {"settings": "in vivo rat model, reported; cited from earlier work"}, "[7]": {"tested_on": "peripheral blood mononuclear cells and spleen cells", "settings": "reported, Wahl et al.; cited from earlier work"}}, "note": "Where no end group is shown, it is not given here."}
{"substance": "WQPPRARIY-OH [SEQ ID NO:1]", "values": [{"measurement": "inhibition of M16B adhesion to rICAM", "setting": "[1]", "result": "not inhibited"}, {"measurement": "inhibition of M14#5 cell adhesion to laminin", "setting": "[2]; laminin coated substrate", "result": "inhibited"}, {"measurement": "inhibition of M14#5 cell adhesion to type IV collagen", "setting": "[2]; type IV collagen coated substrate", "result": "inhibited"}, {"measurement": "inhibition of adhesion to VCAM", "setting": "[3]", "result": "inhibit adhesion to VCAM"}, {"measurement": "inhibition of M16B adhesion to rCS1", "setting": "[4]", "result": "completely inhibited"}, {"measurement": "inhibition of K562 adhesion to FN at the maximal concentration tested", "setting": "[5]; 0.84 mM peptide, K562 cells stimulated with 1 mM MnCl2", "result": "completely inhibited"}, {"measurement": "IC50", "setting": "[5]; K562 cells stimulated with 1 mM MnCl2, adhesion to FN, read-out: half-maximal inhibitory concentration", "result": 200, "unit": "µM"}, {"measurement": "anti-inflammatory properties", "setting": "[6]", "result": "exhibit anti-inflammatory properties"}, {"measurement": "inhibition of leukocyte adhesion to fibronectin in vitro", "setting": "[7]", "result": "inhibit leukocyte adhesion to fibronectin in vitro"}]}
{"substance": "YEKPGSPPREV-VPRPRPGVY (YEKPGSPPREVVPRPRPGVY; listed as Homo sapiens) [FN-C/H I+Y]", "values": [{"measurement": "anti-inflammatory properties", "setting": "[6]", "result": "exhibit anti-inflammatory properties"}, {"measurement": "inhibition of leukocyte adhesion to fibronectin in vitro", "setting": "[7]", "result": "inhibit leukocyte adhesion to fibronectin in vitro"}]}
{"substance": "DELPQLVTLPHPNLHGPEILDVPST (listed as Homo sapiens) [CS1, fibronectin residues 1961-1985]", "values": [{"measurement": "inhibition of M16B adhesion to rCS1", "setting": "[4]", "result": "completely inhibited"}]}
